Source: PMC7714403 (JCI Insight, 2020)
Where two headings read alike, the source gives them in different places.

Experiments:
Assay in all cases: KiNativ, MOLM13 live cells
Type in all cases: cell-based
ATR = ATR (Homo sapiens, UniProt Q13535); conditions: MOLM-13; 100 nM, 2 hours; ATP; read-out: Inhibition vs DMSO
Protocol: (§1) Samples were analyzed by KiNativ in situ kinase profiling by ActivX Biosciences.

BARK1 = BARK1 (Homo sapiens, UniProt P25098); conditions: MOLM-13; 100 nM, 2 hours; Lys2; read-out: Inhibition vs DMSO
Protocol: as §1

CDK9 = CDK9 (Homo sapiens, UniProt P50750); conditions: MOLM-13; 100 nM, 2 hours; ATP Loop; read-out: Inhibition vs DMSO
Protocol: as §1

Erk2 = Erk2 (Homo sapiens, UniProt P28482); conditions: MOLM-13; 100 nM, 2 hours; Lys2; read-out: Inhibition vs DMSO
Protocol: as §1

FES = FES (Homo sapiens, UniProt P07332); conditions: MOLM-13; 100 nM, 2 hours; Lys1; read-out: Inhibition vs DMSO
Protocol: as §1

FGR = FGR (Homo sapiens, UniProt P09769); conditions: MOLM-13; 100 nM, 2 hours; Activation Loop; read-out: Inhibition vs DMSO
Protocol: as §1

FRAP = FRAP (Homo sapiens, UniProt P42345); conditions: MOLM-13; 100 nM, 2 hours; ATP; read-out: Inhibition vs DMSO
Protocol: as §1

IKKa = IKKa (Homo sapiens, UniProt O15111); conditions: MOLM-13; 100 nM, 2 hours; Lys2; read-out: Inhibition vs DMSO
Protocol: as §1

IRE1 = IRE1 (Homo sapiens, UniProt O75460); conditions: MOLM-13; 100 nM, 2 hours; Lys2; read-out: Inhibition vs DMSO
Protocol: as §1

MAP2K3 = target: T1, MAP2K3 (Homo sapiens, UniProt P46734); conditions: MOLM-13, 2 h, 100 nM
T1 sequence (P46734 1-347): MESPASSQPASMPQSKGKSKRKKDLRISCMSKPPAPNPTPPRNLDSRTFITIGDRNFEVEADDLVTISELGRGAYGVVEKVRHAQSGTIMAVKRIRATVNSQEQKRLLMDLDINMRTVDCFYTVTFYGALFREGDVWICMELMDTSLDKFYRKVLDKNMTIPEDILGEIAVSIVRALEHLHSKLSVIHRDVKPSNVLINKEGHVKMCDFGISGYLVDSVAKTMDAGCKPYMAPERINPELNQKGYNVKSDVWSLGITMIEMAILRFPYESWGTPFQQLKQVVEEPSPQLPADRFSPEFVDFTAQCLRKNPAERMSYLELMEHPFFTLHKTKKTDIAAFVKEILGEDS
Protocol: as §1

MAP2K7 = MAP2K7 (Homo sapiens, UniProt O14733); conditions: 100 nM, 2 hours; Lys2
Protocol: as §1

MAP3K4 = MAP3K4 (Homo sapiens, UniProt Q9Y6R4); conditions: MOLM-13, 2 h, 100 nM
Protocol: as §1

MST1 = MST1 (Homo sapiens, UniProt Q13043); conditions: 100 nM, 2 hours; Lys1
Protocol: as §1

NDR1 = NDR1 (Homo sapiens, UniProt Q15208); conditions: MOLM-13, 2 h, 100 nM
Protocol: as §1

NDR2 = NDR2 (Homo sapiens, UniProt Q9Y2H1); conditions: MOLM-13; 100 nM, 2 hours; Lys1; read-out: Inhibition vs DMSO
Protocol: as §1

NEK8 = NEK8 (Homo sapiens, UniProt Q86SG6); conditions: MOLM-13; 100 nM, 2 hours; Lys2; read-out: Inhibition vs DMSO
Protocol: as §1

PFTAIRE2 = PFTAIRE2 (Homo sapiens, UniProt Q96Q40); conditions: MOLM-13; 100 nM, 2 hours; Lys2; read-out: Inhibition vs DMSO
Protocol: as §1

PIP4K2A = PIP4K2A (Homo sapiens, UniProt P48426); conditions: MOLM-13; 100 nM, 2 hours; ATP; read-out: Inhibition vs DMSO
Protocol: as §1

PIP5K3 = PIP5K3 (Homo sapiens, UniProt Q9Y2I7); conditions: 100 nM, 2 hours; ATP
Protocol: as §1

RAF1 = RAF1 (Homo sapiens, UniProt P04049); conditions: MOLM-13; 100 nM, 2 hours; Lys2; read-out: Inhibition vs DMSO
Protocol: as §1

SGK3 = SGK3 (Homo sapiens, UniProt Q96BR1); conditions: MOLM-13; 100 nM, 2 hours; Lys1; read-out: Inhibition vs DMSO
Protocol: as §1

SYK = SYK (Homo sapiens, UniProt P43405); conditions: 100 nM, 2 hours
Protocol: as §1

TAK1 = TAK1 (Homo sapiens, UniProt O43318); conditions: MOLM-13; 100 nM, 2 hours; Lys2; read-out: Inhibition vs DMSO
Protocol: as §1

TLK2 = TLK2 (Homo sapiens, UniProt Q86UE8); conditions: MOLM-13; 100 nM, 2 hours; Lys2; read-out: Inhibition vs DMSO
Protocol: as §1

ZAP70 = target: T2, ZAP70 (Homo sapiens, UniProt P43403); conditions: MOLM-13; 100 nM, 2 hours; Activation Loop; read-out: Inhibition vs DMSO
T2 sequence (P43403 1-619): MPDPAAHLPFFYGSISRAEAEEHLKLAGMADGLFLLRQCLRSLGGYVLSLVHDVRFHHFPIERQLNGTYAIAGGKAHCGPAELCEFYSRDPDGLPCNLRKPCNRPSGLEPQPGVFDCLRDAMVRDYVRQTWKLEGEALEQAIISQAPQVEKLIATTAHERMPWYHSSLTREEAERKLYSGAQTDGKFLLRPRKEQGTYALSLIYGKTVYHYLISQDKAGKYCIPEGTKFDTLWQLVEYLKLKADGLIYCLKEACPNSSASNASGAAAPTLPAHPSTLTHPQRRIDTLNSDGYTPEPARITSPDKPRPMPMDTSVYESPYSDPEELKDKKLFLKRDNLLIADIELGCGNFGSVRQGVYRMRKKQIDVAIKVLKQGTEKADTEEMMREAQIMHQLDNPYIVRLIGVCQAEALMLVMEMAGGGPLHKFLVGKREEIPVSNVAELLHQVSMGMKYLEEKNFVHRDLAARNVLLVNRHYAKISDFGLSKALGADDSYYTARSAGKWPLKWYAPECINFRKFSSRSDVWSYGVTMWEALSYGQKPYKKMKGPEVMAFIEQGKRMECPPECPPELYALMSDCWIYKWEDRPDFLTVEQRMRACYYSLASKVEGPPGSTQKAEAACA
Protocol: as §1

[1] = Lys1, read-out: Inhibition vs DMSO
[2] = Lys2, read-out: Inhibition vs DMSO

Chain of NDR1 (Q15208 whole entry): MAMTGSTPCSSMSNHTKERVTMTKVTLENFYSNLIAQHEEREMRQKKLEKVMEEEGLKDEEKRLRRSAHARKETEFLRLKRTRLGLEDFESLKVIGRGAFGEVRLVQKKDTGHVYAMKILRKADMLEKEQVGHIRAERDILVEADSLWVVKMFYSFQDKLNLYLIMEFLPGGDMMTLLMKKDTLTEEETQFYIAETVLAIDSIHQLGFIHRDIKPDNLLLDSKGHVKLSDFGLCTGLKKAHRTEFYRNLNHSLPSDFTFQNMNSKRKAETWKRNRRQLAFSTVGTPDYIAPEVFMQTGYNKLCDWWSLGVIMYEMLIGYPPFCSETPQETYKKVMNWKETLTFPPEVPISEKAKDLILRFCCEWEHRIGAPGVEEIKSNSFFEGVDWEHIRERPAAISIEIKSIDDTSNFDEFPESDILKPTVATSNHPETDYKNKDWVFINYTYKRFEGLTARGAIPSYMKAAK
Chain of MAP3K4 (Q9Y6R4 whole entry): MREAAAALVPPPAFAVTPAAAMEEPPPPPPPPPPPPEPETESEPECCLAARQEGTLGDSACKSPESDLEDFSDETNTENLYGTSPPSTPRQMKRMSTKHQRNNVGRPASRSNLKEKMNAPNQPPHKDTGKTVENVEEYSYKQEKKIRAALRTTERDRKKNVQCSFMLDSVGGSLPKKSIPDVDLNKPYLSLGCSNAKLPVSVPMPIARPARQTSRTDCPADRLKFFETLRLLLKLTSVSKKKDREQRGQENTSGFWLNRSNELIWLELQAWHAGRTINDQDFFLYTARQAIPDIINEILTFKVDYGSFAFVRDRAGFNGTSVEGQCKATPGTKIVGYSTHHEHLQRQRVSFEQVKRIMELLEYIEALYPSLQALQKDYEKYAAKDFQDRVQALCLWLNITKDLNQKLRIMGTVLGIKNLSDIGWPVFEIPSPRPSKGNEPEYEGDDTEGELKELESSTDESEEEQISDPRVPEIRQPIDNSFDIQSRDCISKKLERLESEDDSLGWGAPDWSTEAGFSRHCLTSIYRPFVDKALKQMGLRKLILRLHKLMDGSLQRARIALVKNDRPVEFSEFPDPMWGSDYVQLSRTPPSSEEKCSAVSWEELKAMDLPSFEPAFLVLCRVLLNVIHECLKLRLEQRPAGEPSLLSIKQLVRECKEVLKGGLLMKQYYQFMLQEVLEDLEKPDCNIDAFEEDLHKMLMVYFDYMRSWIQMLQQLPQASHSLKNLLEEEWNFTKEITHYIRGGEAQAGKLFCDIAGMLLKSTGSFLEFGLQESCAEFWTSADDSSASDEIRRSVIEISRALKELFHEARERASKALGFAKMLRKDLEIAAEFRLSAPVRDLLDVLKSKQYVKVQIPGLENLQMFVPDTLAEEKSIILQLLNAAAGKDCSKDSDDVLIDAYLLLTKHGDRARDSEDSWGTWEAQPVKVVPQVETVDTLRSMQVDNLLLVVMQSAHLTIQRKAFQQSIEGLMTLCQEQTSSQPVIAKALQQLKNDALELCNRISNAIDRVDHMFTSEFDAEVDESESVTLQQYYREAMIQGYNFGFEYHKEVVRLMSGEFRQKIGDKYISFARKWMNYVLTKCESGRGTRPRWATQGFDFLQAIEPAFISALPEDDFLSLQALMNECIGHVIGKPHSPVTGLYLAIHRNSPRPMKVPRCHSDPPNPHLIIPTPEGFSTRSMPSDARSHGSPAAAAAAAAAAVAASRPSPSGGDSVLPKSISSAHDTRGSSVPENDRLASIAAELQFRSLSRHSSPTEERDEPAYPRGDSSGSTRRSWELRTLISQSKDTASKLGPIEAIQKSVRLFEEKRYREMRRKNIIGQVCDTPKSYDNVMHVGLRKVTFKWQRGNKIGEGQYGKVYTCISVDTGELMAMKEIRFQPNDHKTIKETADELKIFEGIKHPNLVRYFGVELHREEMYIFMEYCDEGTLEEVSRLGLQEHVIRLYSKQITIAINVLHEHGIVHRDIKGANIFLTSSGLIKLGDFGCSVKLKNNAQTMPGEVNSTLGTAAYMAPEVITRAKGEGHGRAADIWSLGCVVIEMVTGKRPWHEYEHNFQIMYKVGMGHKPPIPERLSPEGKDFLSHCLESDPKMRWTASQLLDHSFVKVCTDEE
Chain of PFTAIRE2 (Q96Q40 whole entry): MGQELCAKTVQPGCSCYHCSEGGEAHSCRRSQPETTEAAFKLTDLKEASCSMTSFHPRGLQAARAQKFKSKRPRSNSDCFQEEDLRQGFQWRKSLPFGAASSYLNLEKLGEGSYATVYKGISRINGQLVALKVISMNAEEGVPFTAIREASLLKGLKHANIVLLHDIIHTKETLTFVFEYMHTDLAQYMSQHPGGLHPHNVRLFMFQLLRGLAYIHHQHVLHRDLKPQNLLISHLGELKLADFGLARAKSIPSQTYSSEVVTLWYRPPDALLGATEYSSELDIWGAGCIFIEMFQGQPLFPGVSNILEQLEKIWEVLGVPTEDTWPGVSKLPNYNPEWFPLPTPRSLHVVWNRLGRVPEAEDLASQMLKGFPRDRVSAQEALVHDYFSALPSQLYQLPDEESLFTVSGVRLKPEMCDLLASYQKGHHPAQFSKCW
Chain of MST1 (Q13043 whole entry): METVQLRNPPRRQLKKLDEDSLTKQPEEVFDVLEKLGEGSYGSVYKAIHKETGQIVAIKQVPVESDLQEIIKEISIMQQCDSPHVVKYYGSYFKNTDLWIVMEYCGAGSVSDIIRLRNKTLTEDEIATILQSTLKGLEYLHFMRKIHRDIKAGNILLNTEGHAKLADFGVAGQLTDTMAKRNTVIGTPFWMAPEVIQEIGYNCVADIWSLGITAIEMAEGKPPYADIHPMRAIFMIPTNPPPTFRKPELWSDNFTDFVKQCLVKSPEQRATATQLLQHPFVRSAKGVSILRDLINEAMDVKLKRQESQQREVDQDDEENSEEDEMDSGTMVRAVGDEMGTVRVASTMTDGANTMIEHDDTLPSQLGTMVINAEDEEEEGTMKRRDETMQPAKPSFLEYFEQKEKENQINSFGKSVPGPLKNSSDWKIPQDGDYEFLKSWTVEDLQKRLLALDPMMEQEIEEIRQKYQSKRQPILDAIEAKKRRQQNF
Chain of PIP5K3 (Q9Y2I7 whole entry): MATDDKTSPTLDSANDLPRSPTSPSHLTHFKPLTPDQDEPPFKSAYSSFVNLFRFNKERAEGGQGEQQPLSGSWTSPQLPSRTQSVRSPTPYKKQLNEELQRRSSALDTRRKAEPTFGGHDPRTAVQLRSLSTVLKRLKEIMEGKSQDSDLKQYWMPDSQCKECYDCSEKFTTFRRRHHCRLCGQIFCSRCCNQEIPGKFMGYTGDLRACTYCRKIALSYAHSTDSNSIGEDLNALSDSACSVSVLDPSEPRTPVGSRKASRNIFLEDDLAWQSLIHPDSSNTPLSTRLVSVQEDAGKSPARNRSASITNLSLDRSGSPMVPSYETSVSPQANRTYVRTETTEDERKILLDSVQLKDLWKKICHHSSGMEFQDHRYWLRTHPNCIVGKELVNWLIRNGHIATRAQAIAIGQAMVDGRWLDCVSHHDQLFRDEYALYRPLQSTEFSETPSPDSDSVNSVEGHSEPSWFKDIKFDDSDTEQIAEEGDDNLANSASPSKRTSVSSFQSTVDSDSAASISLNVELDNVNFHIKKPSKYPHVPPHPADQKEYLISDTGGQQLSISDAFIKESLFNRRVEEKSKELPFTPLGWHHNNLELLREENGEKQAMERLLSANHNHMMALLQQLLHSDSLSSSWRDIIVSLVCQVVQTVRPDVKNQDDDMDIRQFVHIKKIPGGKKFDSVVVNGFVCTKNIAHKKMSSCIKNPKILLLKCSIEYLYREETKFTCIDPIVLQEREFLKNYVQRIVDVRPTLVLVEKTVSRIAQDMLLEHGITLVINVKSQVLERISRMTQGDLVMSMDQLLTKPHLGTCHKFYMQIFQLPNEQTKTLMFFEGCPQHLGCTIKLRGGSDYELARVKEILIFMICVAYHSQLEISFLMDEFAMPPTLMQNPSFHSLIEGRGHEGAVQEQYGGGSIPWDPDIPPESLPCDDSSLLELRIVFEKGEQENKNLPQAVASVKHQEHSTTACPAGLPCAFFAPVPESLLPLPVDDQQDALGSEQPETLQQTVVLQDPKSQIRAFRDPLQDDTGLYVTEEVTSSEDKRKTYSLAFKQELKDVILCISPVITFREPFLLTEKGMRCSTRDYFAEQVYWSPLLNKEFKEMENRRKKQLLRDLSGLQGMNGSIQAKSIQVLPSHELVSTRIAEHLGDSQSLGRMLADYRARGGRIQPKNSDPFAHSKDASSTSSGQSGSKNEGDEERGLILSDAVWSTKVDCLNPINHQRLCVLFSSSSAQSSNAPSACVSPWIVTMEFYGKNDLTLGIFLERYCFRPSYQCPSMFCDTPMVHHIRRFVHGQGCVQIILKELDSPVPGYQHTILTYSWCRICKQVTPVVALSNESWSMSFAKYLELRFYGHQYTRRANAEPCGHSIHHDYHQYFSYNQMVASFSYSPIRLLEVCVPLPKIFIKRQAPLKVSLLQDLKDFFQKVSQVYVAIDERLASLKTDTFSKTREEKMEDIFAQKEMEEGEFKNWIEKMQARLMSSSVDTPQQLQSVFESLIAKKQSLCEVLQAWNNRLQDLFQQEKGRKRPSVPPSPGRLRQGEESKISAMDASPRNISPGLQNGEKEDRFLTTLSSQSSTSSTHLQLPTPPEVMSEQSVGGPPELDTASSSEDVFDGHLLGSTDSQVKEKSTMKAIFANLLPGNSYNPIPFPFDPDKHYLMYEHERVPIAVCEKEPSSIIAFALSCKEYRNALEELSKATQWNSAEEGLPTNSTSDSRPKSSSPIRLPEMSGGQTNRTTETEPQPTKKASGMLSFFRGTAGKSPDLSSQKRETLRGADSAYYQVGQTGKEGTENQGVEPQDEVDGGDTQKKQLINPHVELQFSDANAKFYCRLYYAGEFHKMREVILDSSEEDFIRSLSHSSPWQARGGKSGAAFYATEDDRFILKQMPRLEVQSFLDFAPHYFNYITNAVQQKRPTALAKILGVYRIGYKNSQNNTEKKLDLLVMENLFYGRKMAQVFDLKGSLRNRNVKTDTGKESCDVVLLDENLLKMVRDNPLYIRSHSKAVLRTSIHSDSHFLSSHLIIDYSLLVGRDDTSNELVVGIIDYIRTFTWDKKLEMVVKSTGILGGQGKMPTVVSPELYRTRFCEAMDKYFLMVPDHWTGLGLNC

With `CN1CCN(Cc2ccc(Nc3ncc(Cl)c(Nc4ccccc4S(=O)(=O)N(C)C)n3)cc2)CC1` [TP-0903] the inhibition at 0.1 µM (ATR) was 7.6%, the inhibition at 0.1 µM (BARK1) was -13.9% and the inhibition at 0.1 µM (CDK9) was -34.4%. The inhibition at 0.1 µM (Erk2) was -9.4%, the inhibition at 0.1 µM (FES) was 1% and the inhibition at 0.1 µM (FGR) was -35.3%. It also gave an inhibition at 0.1 µM (FRAP) of -9.8%, an inhibition at 0.1 µM (IKKa) of 2.9% and an inhibition at 0.1 µM (IRE1) of -29.3%. The inhibition at 0.1 µM (MAP2K3; Activation Loop, read-out: Inhibition vs DMSO) was -10.9%, the inhibition at 0.1 µM (MAP2K3; [1]) was 3.4% and the inhibition at 0.1 µM (MAP2K3; [2]) was 8.2%. For the same molecule, the “Inhibition vs DMSO” value (MAP2K7) was -0.0231%, the inhibition at 0.1 µM (MAP3K4; [1]) was 8.8% and the inhibition at 0.1 µM (MAP3K4; [2]) was 6.6%. For the same molecule, the “Inhibition vs DMSO” value (MST1) was 42.4%, the inhibition at 0.1 µM (NDR1; [1]) was 3.7% and the inhibition at 0.1 µM (NDR1; [2]) was -11.4%. The inhibition at 0.1 µM (NDR2) was -0.6%, the inhibition at 0.1 µM (NEK8) was -5.3% and the inhibition at 0.1 µM (PFTAIRE2) was 16.4%. The inhibition at 0.1 µM (PIP4K2A) was -28.1%, the “Inhibition vs DMSO” value (PIP5K3) was 50.9% and the inhibition at 0.1 µM (RAF1) was 0.349%. For the same molecule, the inhibition at 0.1 µM (SGK3) was -9.6%, the “Inhibition vs DMSO” value (SYK; Activation Loop, AQTHGKWPVK) was 27.9% and the “Inhibition vs DMSO” value (SYK; Activation Loop, ISDFGLSKALR) was 17.6%. The “Inhibition vs DMSO” value (SYK; Lys1) was 8.1%, the inhibition at 0.1 µM (TAK1) was -2.8% and the inhibition at 0.1 µM (TLK2) was 18%. The inhibition at 0.1 µM (ZAP70) was 26.3%.
